Measured values taken from ChEMBL document CHEMBL3991601, “The target landscape of clinical kinase drugs” (Science, 2017).
Calls of active or inactive are those of the source.

What was measured:
[1] = target: T1, Exosome RNA helicase MTR4 (Homo sapiens, UniProt P42285)
T1 sequence (P42285 whole entry): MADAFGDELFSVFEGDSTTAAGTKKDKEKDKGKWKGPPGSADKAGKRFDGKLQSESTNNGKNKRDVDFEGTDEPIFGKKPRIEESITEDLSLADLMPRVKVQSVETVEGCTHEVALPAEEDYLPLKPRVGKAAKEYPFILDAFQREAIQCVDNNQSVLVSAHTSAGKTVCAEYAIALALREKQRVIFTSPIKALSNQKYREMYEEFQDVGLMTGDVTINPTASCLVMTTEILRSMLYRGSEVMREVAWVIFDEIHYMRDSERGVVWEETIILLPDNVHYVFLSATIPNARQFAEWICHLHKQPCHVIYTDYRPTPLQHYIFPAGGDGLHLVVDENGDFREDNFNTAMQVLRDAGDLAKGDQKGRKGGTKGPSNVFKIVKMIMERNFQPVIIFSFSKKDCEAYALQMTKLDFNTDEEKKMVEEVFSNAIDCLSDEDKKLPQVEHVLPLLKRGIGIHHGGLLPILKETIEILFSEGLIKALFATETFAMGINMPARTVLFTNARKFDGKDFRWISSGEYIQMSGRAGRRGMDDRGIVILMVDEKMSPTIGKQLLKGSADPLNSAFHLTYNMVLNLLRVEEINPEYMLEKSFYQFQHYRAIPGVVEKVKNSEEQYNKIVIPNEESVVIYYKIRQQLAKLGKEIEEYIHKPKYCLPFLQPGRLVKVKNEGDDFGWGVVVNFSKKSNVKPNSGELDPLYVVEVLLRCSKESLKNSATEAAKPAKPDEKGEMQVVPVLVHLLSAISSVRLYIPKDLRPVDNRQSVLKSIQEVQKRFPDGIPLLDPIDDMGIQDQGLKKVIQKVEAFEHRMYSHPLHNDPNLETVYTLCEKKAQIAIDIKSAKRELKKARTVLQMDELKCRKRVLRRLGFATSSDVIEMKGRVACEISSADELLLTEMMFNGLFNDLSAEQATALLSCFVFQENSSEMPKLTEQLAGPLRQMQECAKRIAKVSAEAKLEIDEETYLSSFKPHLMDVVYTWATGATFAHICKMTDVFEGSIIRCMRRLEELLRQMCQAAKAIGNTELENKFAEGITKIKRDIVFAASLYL

[2] = target: T2, Serine/threonine-protein kinase PLK4 (Homo sapiens, UniProt O00444)
T2 sequence (O00444 whole entry): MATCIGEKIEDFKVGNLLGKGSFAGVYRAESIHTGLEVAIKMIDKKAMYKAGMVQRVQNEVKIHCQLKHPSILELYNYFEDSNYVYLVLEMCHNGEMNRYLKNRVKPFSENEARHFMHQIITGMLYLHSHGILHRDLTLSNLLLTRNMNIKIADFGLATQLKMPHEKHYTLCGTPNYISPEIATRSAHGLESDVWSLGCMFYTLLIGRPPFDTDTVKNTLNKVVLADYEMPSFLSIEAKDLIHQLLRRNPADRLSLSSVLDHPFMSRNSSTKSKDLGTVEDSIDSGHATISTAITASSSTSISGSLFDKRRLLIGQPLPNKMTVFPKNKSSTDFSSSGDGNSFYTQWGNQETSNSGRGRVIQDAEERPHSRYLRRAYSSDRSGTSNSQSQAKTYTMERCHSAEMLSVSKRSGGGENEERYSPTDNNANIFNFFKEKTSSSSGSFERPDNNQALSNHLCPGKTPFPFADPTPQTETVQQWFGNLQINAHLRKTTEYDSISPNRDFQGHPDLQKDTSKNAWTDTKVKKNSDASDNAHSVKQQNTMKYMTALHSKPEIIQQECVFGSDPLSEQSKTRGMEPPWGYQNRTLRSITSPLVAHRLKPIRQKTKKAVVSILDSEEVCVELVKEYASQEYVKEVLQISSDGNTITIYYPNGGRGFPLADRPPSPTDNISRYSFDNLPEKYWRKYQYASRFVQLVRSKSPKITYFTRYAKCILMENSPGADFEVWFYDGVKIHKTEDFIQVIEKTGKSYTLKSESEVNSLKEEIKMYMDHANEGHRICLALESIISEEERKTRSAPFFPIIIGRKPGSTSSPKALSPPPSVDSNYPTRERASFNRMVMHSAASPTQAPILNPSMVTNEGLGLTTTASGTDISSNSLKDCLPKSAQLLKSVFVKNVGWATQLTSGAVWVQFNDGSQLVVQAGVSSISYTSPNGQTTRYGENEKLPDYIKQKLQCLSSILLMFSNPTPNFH

UMP-CMP kinase = target: T3, UMP-CMP kinase (Homo sapiens, UniProt P30085)
T3 sequence (P30085 whole entry): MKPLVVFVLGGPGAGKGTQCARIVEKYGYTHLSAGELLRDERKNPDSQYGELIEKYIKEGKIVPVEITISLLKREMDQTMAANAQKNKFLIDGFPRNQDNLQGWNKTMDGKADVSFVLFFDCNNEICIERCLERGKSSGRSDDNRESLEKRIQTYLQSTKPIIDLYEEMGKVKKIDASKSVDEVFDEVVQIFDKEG
Further: in the data inactive means no Kd found up to 30 µM.

Structure (SMILES)	Kd [1]	Kd [2]	Kd (UMP-CMP kinase)
CCn1c(=O)c(-c2cc[nH]n2)cc2c(C)nc(N)nc21 [VOXTALISIB]	> 30 µM (inactive)	> 30 µM (inactive)	> 30 µM (inactive)
Cc1ccc(NC(=O)c2ccc(CN3CC[C@H](N(C)C)C3)c(C(F)(F)F)c2)cc1Nc1nccc(-c2cncnc2)n1 [BAFETINIB]	> 30 µM (inactive)	> 30 µM (inactive)	> 30 µM (inactive)
COc1ccc(-c2ccc3c(N4CCOC[C@@H]4C)nc(N4CCOC[C@@H]4C)nc3n2)cc1CO [AZD-8055]	> 30 µM (inactive)	> 30 µM (inactive)	> 30 µM (inactive)
Cn1cc(-c2ccc(F)c(C(F)(F)F)c2)nc1C1CCN(c2ncnc3[nH]ncc23)CC1 [LY-2584702]	> 30 µM (inactive)	> 30 µM (inactive)	> 30 µM (inactive)
N[C@@H]1CCCN(c2c(/C=C3\SC(=O)NC3=O)cccc2-c2ccccc2)C1	> 30 µM (inactive)	> 30 µM (inactive)	> 30 µM (inactive)
COc1cc(CCc2cc(NC(=O)c3ccc(N4C[C@@H](C)N[C@@H](C)C4)cc3)n[nH]2)cc(OC)c1 [AZD-4547]	> 30 µM (inactive)	> 30 µM (inactive)	> 30 µM (inactive)
CNC(=O)c1cc(Oc2ccc(NC(=O)Nc3ccc(Cl)c(C(F)(F)F)c3)c(F)c2)ccn1 [REGORAFENIB]	> 30 µM (inactive)	> 30 µM (inactive)	> 30 µM (inactive)
COCCNCc1ccc(-c2cc3nccc(Oc4ccc(NC(=S)NC(=O)Cc5ccc(F)cc5)cc4F)c3s2)nc1 [GLESATINIB]	> 30 µM (inactive)	1.42 µM (active)	> 30 µM (inactive)
CN1CC[C@@H](c2c(O)cc(O)c3c(=O)cc(-c4ccccc4Cl)oc23)[C@@H]1CO	> 30 µM (inactive)	> 30 µM (inactive)	> 30 µM (inactive)
COc1cc2nccc(Oc3ccc(NC(=O)Nc4cc(C)on4)c(Cl)c3)c2cc1OC [TIVOZANIB]	> 30 µM (inactive)	> 30 µM (inactive)	> 30 µM (inactive)
CC[C@@H]1C(=O)N(C)c2cnc(Nc3ccc(C(=O)N[C@H]4CC[C@H](N5CCN(CC6CC6)CC5)CC4)cc3OC)nc2N1C(C)C [VOLASERTIB]	> 30 µM (inactive)	> 30 µM (inactive)	> 30 µM (inactive)
CN1CCC(COc2cnc(-c3cccc(Cn4nc(-c5cccc(C#N)c5)ccc4=O)c3)nc2)CC1 [TEPOTINIB]	> 30 µM (inactive)	> 30 µM (inactive)	> 30 µM (inactive)
Cc1cc2c(F)c(Oc3ncnn4cc(OC[C@@H](C)OC(=O)[C@H](C)N)c(C)c34)ccc2[nH]1 [BRIVANIB ALANINATE]	> 30 µM (inactive)	> 30 µM (inactive)	> 30 µM (inactive)
CN1N=C(N)c2cn([C@@H]3O[C@H](COP(=O)(O)O)[C@@H](O)[C@H]3O)c3ncnc1c23 [TRICIRIBINE PHOSPHATE]	> 30 µM (inactive)	> 30 µM (inactive)	> 30 µM (inactive)
Cc1cc([C@@H](C)Nc2ccccc2C(=O)O)c2nc(N3CCOCC3)cc(=O)n2c1 [AZD-6482]	> 30 µM (inactive)	> 30 µM (inactive)	> 30 µM (inactive)
CCS(=O)(=O)N1CC(CC#N)(n2cc(-c3ncnc4[nH]ccc34)cn2)C1 [BARICITINIB]	> 30 µM (inactive)	> 30 µM (inactive)	> 30 µM (inactive)
Cc1cc(-c2cc(O)ccc2Cl)cc2nnc(Nc3ccc(OCCN4CCCC4)cc3)nc12	> 30 µM (inactive)	> 30 µM (inactive)	> 30 µM (inactive)
CN1CCC(CNc2ccc3ncc(-c4cccc(OC(F)(F)F)c4)n3n2)CC1 [SGI-1776]	> 30 µM (inactive)	> 30 µM (inactive)	> 30 µM (inactive)
CCCS(=O)(=O)Nc1ccc(F)c(C(=O)c2c[nH]c3ncc(-c4ccc(Cl)cc4)cc23)c1F [VEMURAFENIB]	> 30 µM (inactive)	> 30 µM (inactive)	> 30 µM (inactive)
